Test results reported in patent US10870647B2, “Imidazopyridine derivative, method for preparing same, and pharmaceutical composition containing same as active ingredient for preventing or treating cancer” (DAEGU-GYEONGBUK MEDICAL INNOVATION FOUNDATION, priority 2016, dated 2020).

Key:
Assay in all cases: Kinase selectivity, scanMAX Kinase assay panel (DiscoverX), % control at 1 uM
Type in all cases: binding
[1] = target: T1, scanMAX Kinase assay panel (Homo sapiens, UniProt Q6XUX3); settings: RIPK5; 1 uM; read-out: Percent Control (%)
T1 construct: purchased DiscoverX
T1 sequence (Q6XUX3 1-929): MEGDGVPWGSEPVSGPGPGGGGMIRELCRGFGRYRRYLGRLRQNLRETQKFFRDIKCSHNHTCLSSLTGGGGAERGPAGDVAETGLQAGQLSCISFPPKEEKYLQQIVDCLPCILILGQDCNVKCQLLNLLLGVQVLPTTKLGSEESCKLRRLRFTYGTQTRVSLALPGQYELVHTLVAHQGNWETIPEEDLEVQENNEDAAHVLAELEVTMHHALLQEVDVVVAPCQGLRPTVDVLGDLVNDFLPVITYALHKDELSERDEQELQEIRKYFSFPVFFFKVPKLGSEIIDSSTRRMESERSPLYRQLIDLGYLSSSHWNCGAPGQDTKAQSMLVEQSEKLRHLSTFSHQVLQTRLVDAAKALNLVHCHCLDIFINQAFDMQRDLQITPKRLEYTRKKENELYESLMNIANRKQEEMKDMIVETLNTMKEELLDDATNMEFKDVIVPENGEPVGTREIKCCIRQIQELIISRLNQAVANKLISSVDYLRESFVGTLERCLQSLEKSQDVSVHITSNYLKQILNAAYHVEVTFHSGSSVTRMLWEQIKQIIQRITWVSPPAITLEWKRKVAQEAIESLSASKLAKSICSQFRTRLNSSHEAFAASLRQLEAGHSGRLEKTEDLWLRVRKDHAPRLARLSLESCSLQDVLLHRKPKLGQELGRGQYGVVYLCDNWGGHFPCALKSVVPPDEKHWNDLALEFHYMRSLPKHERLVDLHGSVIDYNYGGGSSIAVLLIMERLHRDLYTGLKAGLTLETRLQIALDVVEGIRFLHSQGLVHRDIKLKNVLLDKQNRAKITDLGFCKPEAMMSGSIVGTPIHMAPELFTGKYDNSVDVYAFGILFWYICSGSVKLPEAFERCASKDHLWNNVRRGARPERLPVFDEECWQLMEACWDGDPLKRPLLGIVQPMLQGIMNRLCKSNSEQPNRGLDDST
Summary of the method: (§1)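 Compounds were tested at 1 uM in DMSO against each enzyme in the panel. Percent control was calculated as (compound − positive control)/(negative control − positive control) × 100, and a compound was scored active on a kinase when this value fell below 35.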

[2] = target: T2, scanMAX Kinase assay panel (Homo sapiens, UniProt Q6ZN16); settings: MAP3K15; 1 uM; read-out: Percent Control (%)
T2 construct: purchased DiscoverX
T2 sequence (Q6ZN16 1-1313): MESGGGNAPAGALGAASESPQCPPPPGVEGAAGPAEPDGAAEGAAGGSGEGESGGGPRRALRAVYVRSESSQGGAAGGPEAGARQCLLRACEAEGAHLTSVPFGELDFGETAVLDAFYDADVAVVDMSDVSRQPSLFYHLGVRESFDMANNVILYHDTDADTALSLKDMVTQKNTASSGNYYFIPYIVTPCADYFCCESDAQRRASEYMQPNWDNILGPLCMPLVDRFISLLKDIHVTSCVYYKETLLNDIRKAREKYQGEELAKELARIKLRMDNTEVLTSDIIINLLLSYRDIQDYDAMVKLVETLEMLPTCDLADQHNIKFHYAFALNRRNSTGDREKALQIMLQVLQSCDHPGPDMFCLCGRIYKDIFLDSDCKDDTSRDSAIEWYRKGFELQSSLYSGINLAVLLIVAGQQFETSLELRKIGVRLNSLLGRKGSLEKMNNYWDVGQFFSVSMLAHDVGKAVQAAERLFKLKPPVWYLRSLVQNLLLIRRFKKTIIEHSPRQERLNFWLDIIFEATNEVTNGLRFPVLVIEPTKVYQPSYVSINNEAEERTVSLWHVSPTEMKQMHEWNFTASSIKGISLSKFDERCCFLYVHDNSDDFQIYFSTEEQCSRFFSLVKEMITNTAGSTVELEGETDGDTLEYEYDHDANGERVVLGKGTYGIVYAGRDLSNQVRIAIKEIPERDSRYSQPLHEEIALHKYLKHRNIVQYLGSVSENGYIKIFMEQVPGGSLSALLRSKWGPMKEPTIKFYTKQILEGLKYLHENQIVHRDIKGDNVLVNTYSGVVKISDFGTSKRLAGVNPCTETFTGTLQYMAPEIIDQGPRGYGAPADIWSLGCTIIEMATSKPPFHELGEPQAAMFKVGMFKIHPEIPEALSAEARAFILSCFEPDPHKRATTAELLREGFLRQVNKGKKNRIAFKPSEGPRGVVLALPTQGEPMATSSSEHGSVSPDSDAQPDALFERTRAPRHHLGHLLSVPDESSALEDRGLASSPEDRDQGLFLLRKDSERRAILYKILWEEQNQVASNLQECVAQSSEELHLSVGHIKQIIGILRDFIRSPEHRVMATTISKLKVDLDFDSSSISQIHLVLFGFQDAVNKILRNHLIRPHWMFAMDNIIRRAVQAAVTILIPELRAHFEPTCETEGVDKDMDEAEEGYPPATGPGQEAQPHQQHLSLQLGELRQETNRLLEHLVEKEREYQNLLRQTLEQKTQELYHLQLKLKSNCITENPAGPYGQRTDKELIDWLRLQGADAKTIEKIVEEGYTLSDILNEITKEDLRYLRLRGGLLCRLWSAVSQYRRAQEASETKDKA
Summary of the method: as §1

[3] = target: T3, scanMAX Kinase assay panel (Homo sapiens, UniProt P36897); settings: TGFBR1; 1 uM; read-out: Percent Control (%)
T3 construct: purchased DiscoverX
T3 sequence (P36897 34-503): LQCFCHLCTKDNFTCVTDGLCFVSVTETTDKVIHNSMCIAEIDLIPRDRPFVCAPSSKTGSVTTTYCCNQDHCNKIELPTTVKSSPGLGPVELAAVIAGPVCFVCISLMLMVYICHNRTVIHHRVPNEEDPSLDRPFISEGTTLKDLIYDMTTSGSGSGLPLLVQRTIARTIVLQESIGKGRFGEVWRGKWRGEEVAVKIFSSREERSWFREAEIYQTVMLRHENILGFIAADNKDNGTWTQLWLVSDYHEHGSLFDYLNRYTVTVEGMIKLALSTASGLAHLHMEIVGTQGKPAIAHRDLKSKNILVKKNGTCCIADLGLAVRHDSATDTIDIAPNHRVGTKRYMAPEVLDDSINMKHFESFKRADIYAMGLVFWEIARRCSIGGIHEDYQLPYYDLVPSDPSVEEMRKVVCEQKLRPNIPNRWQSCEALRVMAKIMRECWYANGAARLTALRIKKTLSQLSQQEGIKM
Summary of the method: as §1

SMILES | remaining binding at 1 µM [1] [%] | remaining binding at 1 µM [2] [%] | remaining binding at 1 µM [3] [%]
Cc1ccc(C(=O)Nc2ccc(CN3CCN(C)CC3)c(C(F)(F)F)c2)cc1C#Cc1cnc2c(Nc3cnn(C)c3)cccn12 [Example 1, 4-methyl-3-((8-((1-methyl-1H-pyrazol-4-yl)amino)imidazo[1,2-a]pyridin-3-yl)ethynyl)-N-(4-((4-methylpiperazin-1-yl)methyl)-3-(trifluoromethyl)phenyl)benzamide] | 41 | 72 | 85
Cc1cn(-c2cc(NC(=O)c3ccc(C)c(C#Cc4cnc5c(Nc6cnn(C)c6)cccn45)c3)cc(C(F)(F)F)c2)cn1 [Example 12, 4-methyl-N-(3-(4-methyl-1H-imidazol-1-yl)-5-(trifluoromethyl)phenyl)-3-((8-((1-methyl-1H-pyrazol-4-yl)amino)imidazo[1,2-a]pyridin-3-yl)ethynyl)benzamide] | 100 | 100 | 85
Cc1ccc(NC(=O)C2(C(=O)Nc3ccc(F)cc3)CC2)cc1C#Cc1cnc2c(Nc3cnn(C(C)C)c3)cccn12 [Example 78] | 79 | 98 | 100
